Assay results as given in ChEMBL document CHEMBL5346923, “Novel pyridinium cationic pleuromutilin analogues overcoming bacterial multidrug resistance” (Eur J Med Chem, 2023).
The source made the active and inactive calls. The rule behind the calls is not given here.

Experiments:
[1] = Toxicity in BABL/C mouse assessed as survival rate at 631 mg/kg, po measured upto 14 days; assay type: organism-based; settings: in vivo, time < 14 day
[2] = test system: Proteus; assay: Antibacterial activity against Proteus CMCC (B) 49027 assessed as inhibition of bacterial growth measured after 24 hrs by MH broth based assay; assay type: functional
[3] = test system: Staphylococcus aureus; assay: Antibacterial activity against tiamulin-resistant/methicillin-resistant Staphylococcus aureus assessed as inhibition of bacterial growth; assay type: functional
[4] = Hemolytic activity in rabbit RBC at 200 ug/ml incubated for 5 mins by absorbance based analysis; assay type: toxicity, cell-based, Oryctolagus cuniculus, Erythrocyte; settings: rabbit red blood cells (erythrocytes), at 200 µg/mL, read-out: Activity
[5] = test system: HepG2; assay: Cytotoxicity against human HepG2 cells assessed as reduction in cell viability at 7.5 to 1000 ug/ml incubated for 6 hrs by CCK-8 assay; assay type: toxicity, cell-based; settings: hepg2, 6 h, dose 7.5-1000 µg/ml
[6] = test system: Staphylococcus aureus; assay: Antibacterial activity against clinical isolate Staphylococcus aureus harbouring cfr and erm C gene assessed as inhibition of bacterial growth measured after 24 hrs by MH broth based assay; assay type: functional
[7] = test system: Staphylococcus aureus; assay: Antibacterial activity against Staphylococcus aureus ATCC 29213 assessed as inhibition of bacterial GFP expression at 1 to 4 times of MIC incubated for 1 hr by fluorescence microscopic analysis; assay type: functional, organism-based
[8] = test system: Staphylococcus aureus; assay: Antibacterial activity against clinical isolate Staphylococcus aureus harbouring erm C gene assessed as inhibition of bacterial growth measured after 24 hrs by MH broth based assay; assay type: functional
[9] = test system: Escherichia coli; assay: Antibacterial activity against clinical isolate Escherichia coli harbouring NDM-17 gene assessed as inhibition of bacterial growth measured after 24 hrs by MH broth based assay; assay type: functional
[10] = test system: Escherichia coli; assay: Antibacterial activity against Escherichia coli MG1655 assessed as inhibition of bacterial growth measured after 24 hrs by MH broth based assay; assay type: functional
[11] = test system: Streptococcus suis; assay: Antibacterial activity against clinical isolate Streptococcus suis harbouring IsaE and ErmA gene assessed as inhibition of bacterial growth measured after 24 hrs by MH broth based assay; assay type: functional
[12] = test system: Streptococcus pneumoniae; assay: Antibacterial activity against Streptococcus pneumoniae ATCC 49619 assessed as inhibition of bacterial growth measured after 24 hrs by MH broth based assay; assay type: functional
[13] = test system: Enterococcus; assay: Antibacterial activity against vancomycin-resistant Enterococcus ATCC 700221 assessed as inhibition of bacterial growth measured after 24 hrs by MH broth based assay; assay type: functional
[14] = test system: Staphylococcus aureus; assay: Antibacterial activity against multi-drug resistant Staphylococcus aureus sa1 infected in BABL/C mouse assessed as reduction in bacterial load in lungs at 20 mg/kg, ip measured after 2 days; assay type: functional; settings: time 2 day
[15] = test system: Klebsiella pneumoniae; assay: Antibacterial activity against Klebsiella pneumonia CMCC (B) 46117 assessed as inhibition of bacterial growth measured after 24 hrs by MH broth based assay; assay type: functional
[16] = test system: Staphylococcus aureus; assay: Antibacterial activity against clinical isolate Staphylococcus aureus harbouring blaZ gene assessed as inhibition of bacterial growth measured after 24 hrs by MH broth based assay; assay type: functional
[17] = test system: Staphylococcus aureus; assay: Potency index, ratio of tiamulin MIC to compound […] for antibacterial activity against clinical isolate multi-drug resistant Staphylococcus aureus sal; assay type: functional
[18] = test system: Staphylococcus aureus; assay: Antibacterial activity against clinical isolate Staphylococcus aureus harbouring ArlS, norA and MgrA gene assessed as inhibition of bacterial growth measured after 24 hrs by MH broth based assay; assay type: functional
[19] = test system: Bacillus subtilis; assay: Antibacterial activity against Bacillus subtilis ATCC 6633 assessed as inhibition of bacterial growth measured after 24 hrs by MH broth based assay; assay type: functional
[20] = test system: Staphylococcus aureus; assay: Antibacterial activity against methicillin-resistant Staphylococcus aureus […] assessed as post antibacterial effect by measuring time required for increase in log10 CFU/ml of bacteria at 2 times of MIC incubated for 1 hr by MH broth based assay; assay type: functional
[21] = test system: Staphylococcus aureus; assay: Antibacterial activity against 4 times of MIC treated methicillin-resistant Staphylococcus aureus […] assessed as post-antibiotic sub-MIC effect by measuring time required for increase in log10 CFU/ml of bacteria at 0.25 to 0.5 times of MIC incubated for 1 hr by MH broth based assay; assay type: functional
[22] = test system: Escherichia coli; assay: Antibacterial activity against Escherichia coli MG1655 harbouring acrB gene assessed as inhibition of bacterial growth measured after 24 hrs by MH broth based assay; assay type: functional
[23] = test system: Staphylococcus aureus; assay: Antibacterial activity against Staphylococcus aureus ATCC 29213 assessed as inhibition of bacterial division at 4 times of MIC by SEM analysis; assay type: functional, organism-based
[24] = test system: Staphylococcus aureus; assay: Antibacterial activity against Staphylococcus aureus ATCC 29213 assessed as induction of cell membrane perforation at 4 times of MIC by SEM analysis; assay type: functional, organism-based
[25] = test system: Staphylococcus aureus; assay: Antibacterial activity against clinical isolate Staphylococcus aureus harbouring cfr gene assessed as inhibition of bacterial growth measured after 24 hrs by MH broth based assay; assay type: functional
[26] = test system: Staphylococcus aureus; assay: Antibacterial activity against methicillin-resistant Staphylococcus aureus assessed as resistance development by measuring fold increase in MIC measured after 24 days; assay type: functional; settings: time 24 day
[27] = test system: Streptococcus hyovaginalis; assay: Antibacterial activity against clinical isolate Streptococcus hyovaginalis harbouring ErmB and tetO gene assessed as inhibition of bacterial growth measured after 24 hrs by MH broth based assay; assay type: functional
[28] = test system: Staphylococcus aureus; assay: Antibacterial activity against clinical isolate multi-drug resistant Staphylococcus aureus sal assessed as reduction in log10 CFU at 1 times of MIC measured after 8 hrs by time-kill assay; assay type: functional, organism-based
[29] = test system: Staphylococcus aureus; assay: Antibacterial activity against clinical isolate Staphylococcus aureus harbouring IsaA, cfr and erm A gene assessed as inhibition of bacterial growth measured after 24 hrs by MH broth based assay; assay type: functional
[30] = test system: Staphylococcus aureus; assay: Antibacterial activity against 2 times of MIC treated methicillin-resistant Staphylococcus aureus […] assessed as post-antibiotic sub-MIC effect by measuring time required for increase in log10 CFU/ml of bacteria at 0.5 times of MIC incubated for 1 hr by MH broth based assay; assay type: functional
[31] = test system: Aerococcus viridans; assay: Antibacterial activity against clinical isolate Aerococcus viridans harbouring optrA and ErmA gene assessed as inhibition of bacterial growth measured after 24 hrs by MH broth based assay; assay type: functional
[32] = test system: Escherichia coli; assay: Antibacterial activity against Escherichia coli ATCC 25922 assessed as inhibition of bacterial growth measured after 24 hrs by MH broth based assay; assay type: functional
[33] = test system: Klebsiella pneumoniae; assay: Antibacterial activity against clinical isolate Klebsiella pneumoniae harbouring blaKpc gene assessed as inhibition of bacterial growth measured after 24 hrs by MH broth based assay; assay type: functional
[34] = test system: Cell membrane; assay: Disruption of membrane integrity in Staphylococcus aureus ATCC 29213 assessed as induction of cell membrane perforation at 1 to 4 ug/ml incubated for 60 mins by ONPG reagent based analysis; assay type: subcellular; settings: dose 1-4 µg/ml
[35] = test system: Staphylococcus aureus; assay: Antibacterial activity against Staphylococcus aureus ATCC 29213 assessed as induction of bacterial fragmentation at 1 times of MIC by SEM analysis; assay type: functional, organism-based
[36] = test system: Staphylococcus aureus; assay: Antibacterial activity against methicillin-resistant Staphylococcus aureus ATCC 43300 assessed as reduction in log10 CFU at 6 times of MIC measured after 8 hrs by time-kill assay; assay type: functional
[37] = test system: Staphylococcus aureus; assay: Antibacterial activity against methicillin-resistant Staphylococcus aureus ATCC 43300 assessed as reduction in log10 CFU at 3 times of MIC measured after 8 hrs by time-kill assay; assay type: functional
[38] = test system: Staphylococcus aureus; assay: Antibacterial activity against multi-drug resistant Staphylococcus aureus sa1 infected in BABL/C mouse assessed as reduction in bacterial load in lungs at 40 mg/kg, ip measured after 2 days; assay type: functional; settings: time 2 day

C=C[C@]1(C)C[C@@H](OC(=O)CSc2cc[n+](CCCCCCC)cc2)[C@]2(C)[C@H](C)CC[C@]3(CCC(=O)[C@H]32)[C@@H](C)[C@@H]1O.[I-]
survival at 336 h [1]: 80%
MIC [2]: 32 µg/mL
MIC [3]: 0.5 µg/mL
hemolysis at 5 min, 200 ug/ml [4]: < 14%
Activity [5]: Non-Toxic
MIC [6]: 8 µg/mL
Activity [7]: Active
MIC [8]: 2 µg/mL
MIC [9]: 16 µg/mL
MIC [10]: 32 µg/mL
MIC [11]: 16 µg/mL
MIC [12]: < 0.031 µg/mL
MIC [13]: 4 µg/mL
Activity [14]: 3.29 log10CFU/ml
MIC [15]: 2 µg/mL
MIC [16]: 0.063 µg/mL
Ratio [17]: 96
MIC [18]: 0.063 µg/mL
MIC [19]: 4 µg/mL
Time [20]: 2.31 h
Time [21]: 2.75 h
MIC [22]: 0.5 µg/mL
Activity [23]: Active
Activity [24]: Active
MIC [25]: 8 µg/mL
fold change (FC) [26]: 8
MIC [27]: 32 µg/mL
Activity [28]: Active
MIC [29]: 4 µg/mL
Time [30]: ~2.7 h
MIC [31]: 2 µg/mL
MIC [32]: 32 µg/mL
MIC [33]: 4 µg/mL
Activity [34]: Active
Activity [35]: Active
Activity [36]: 2 log10CFU/ml
Activity [37]: 2 log10CFU/ml
Activity [38]: 4.17 log10CFU/ml
